Legend:
Type in all cases: in vivo
daphnids (Daphnia magna) [1] = experiment: Measurement of fat mass of daphnids by Nile red fluorescence (lipid reduction promotion test); details: for Body Fat Mass vs Comparative Example 1 (%), Average: Nile red fluorescence intensity, Comparative Example 1 (no IPQ) = 100, 5 daphnids, 4 days after addition to breeding water, H-IPQ 50 μM or 200 μM, Arg-IPQ 80 mg/L, Leu-IPQ 80 mg/L, ECGC 1 mg/L, carnitine 2 mg/L; for body fat mass as compared with the control (Comparative Example 1), in words: daphnids bred 4 days with substance in breeding water
Method: In the present examples, […] (scientific name: Daphnia magna) were used in a lipid reduction promotion test. As chlorella (scientific name: Chlorella vulgaris) used as a feed for the […], a product of […] Center LLC was used. Specifically, parent […] bred in a water tank at 22° C. under a day cycle of an 8/16-hour light/dark cycle. The chlorella used as the feed was supplied in an amount of 8×10^7 on Monday, Wednesday, and Friday. Breeding water held in the water tank was exchanged at a frequency of once a week. Under these breeding conditions, child […] born from the parent […] used in the following examples. 10 child […] bred in 500 mL of mineral water (at 22° C.) under a day cycle of an 8/16-hour light/dark cycle. […] 10 child […] bred in 500 mL of mineral water (at 22° C.) under a day cycle of an 8/16-hour light/dark cycle. […] 10 child […] bred in 500 mL of mineral water (at 22° C.) under a day cycle of an 8/16-hour light/dark cycle. […] 10 child […] bred in 500 mL of mineral water (at 22° C.) under a day cycle of an 8/16-hour light/dark cycle. […] 10 child […] bred in 500 mL of mineral water (at 22° C.) under a day cycle of an 8/16-hour light/dark cycle. […] 10 child […] bred in 500 mL of mineral water (at 22° C.) under a day cycle of an 8/16-hour light/dark cycle. […] The fat mass was measured in accordance with Non Patent Literature 4. […] Thereafter, the […] washed with water, and taken out. Water was added thereto in an amount of 300 μL per […], and the resultant was ground by applying ultrasonic waves for 15 minutes. The thus obtained ground liquid was centrifuged to collect a supernatant. The resultant was measured for a fluorescence intensity through 485 nm excitation/535 nm detection using a plate reader. This measurement operation was performed on 5 […].

daphnids (Daphnia magna) [2] = experiment: Measurement of body length of daphnids; details: for Body Length (mm), Average: daphnids bred 4 days with substance, Arg-IPQ 80 mg/L, Leu-IPQ 80 mg/L, ECGC 1 mg/L, carnitine 2 mg/L, control 2.37 mm; for body length as compared with the control (Comparative Example 1), in words: daphnids bred 4 days with substance in breeding water
daphnids (Daphnia magna) [3] = experiment: Caloric restriction equivalent amount from correlation between amount of feed and fat mass; details: calculated from fat mass (fluorescence intensity) with feed/fat mass regression line; Comparative Example 1 = 0
Source text: Then, the logarithm of the amount of the feed and the fat mass (fluorescence intensity) obtained after the breeding were plotted as illustrated in FIG. 2 (n=5). When an approximate straight line was drawn on the plots, the approximate straight line was represented by the following equation, and the correlation coefficient was R=0.996. [formula] [formula] [formula] This equation of the approximate straight line can be regarded as a relational expression between the logarithm of the amount of the feed, namely, calorie intake, and the fat mass (fluorescence intensity) after the breeding.

daphnids (Daphnia magna) [4] = experiment: Evaluation of movement capability of daphnids (video analysis of moving distance); details: for moving distance for 30 seconds, Daphnid 1: individual Daphnid 1, control 20.01 cm; for moving distance for 30 seconds, Daphnid 2: individual Daphnid 2, control 22.67 cm; for moving distance for 30 seconds, Daphnid 3: individual Daphnid 3, control 18.62 cm; for amount of exercise improved (times vs control): moving distance relative to control daphnids; for moving distance for 30 seconds, Average ± Standard Deviation: three daphnids, control 20.46 ± 2.06 cm
Method: The daphnids bred under condition of no IPQ described in Comparative Example 1 (control), and the daphnids bred in the presence of H-IPQ, Arg-IPQ, and Leu-IPQ respectively described in Examples 1 to 3 were used. 20 mL of mineral water was put in each of four 100 mm-glass petri dishes, into each of which one daphnid bred in Comparative Example 1 and Examples 1 to 3 was transferred. These petri dishes were placed to be adjacent to one another, and the movement for 1 minute of the daphnids was recorded. This operation was repeated three times using different individuals. Then, Kinovea video analysis software was used to analyze a moving distance for 30 seconds of each daphnid.
It is noted that the daphnids were in a state of always moving in the test, which is regarded as a state of exercise with an intensity of 3 METs or more in terms of human exercise intensity.

Row | Compound | Body Fat Mass vs Comparative Example 1 (%), Average (daphnids (Daphnia magna) [1]) [%] | body fat mass as compared with the control (Comparative Example 1), in words (daphnids (Daphnia magna) [1]) | Body Length (mm), Average (daphnids (Daphnia magna) [2]) [mm] | Caloric Restriction Equivalent Amount (0 meaning no caloric restriction) (daphnids (Daphnia magna) [3]) [%] | body length as compared with the control (Comparative Example 1), in words (daphnids (Daphnia magna) [2]) | moving distance for 30 seconds, Daphnid 1 (daphnids (Daphnia magna) [4]) [cm] | moving distance for 30 seconds, Daphnid 2 (daphnids (Daphnia magna) [4]) [cm] | moving distance for 30 seconds, Daphnid 3 (daphnids (Daphnia magna) [4]) [cm] | amount of exercise improved (times vs control) (daphnids (Daphnia magna) [4]) | moving distance for 30 seconds, Average ± Standard Deviation (daphnids (Daphnia magna) [4]) [cm]
1 | O=C(O[C@@H]1Cc2c(O)cc(O)cc2O[C@@H]1c1cc(O)c(O)c(O)c1)c1cc(O)c(O)c(O)c1 [Comparative Example 2, Epigallocatechin Gallate, reference compound] | 102.0 | neither increased not reduced | 2.43 | −7 |  |  |  |  |  | 
2 | C[N+](C)(C)CC(O)CC(=O)[O-] (stereo not shown) [Comparative Example 3, carnitine, reference compound] | 133.8 | increased | 2.82 | −231 |  |  |  |  |  | 
3 | O=C([O-])c1cc2c(=O)c3ncn4c(C(=O)[O-])cc(C(=O)[O-])c(c2[nH]1)c34.[Na+].[Na+].[Na+] [Example 1, glycine residue IPQ trisodium] | 60.3 | reduced |  | 73 | not grown to be very large | 24.23 | 21.43 | 27.85 | about 1.2 times | 24.50 ± 3.22
4 | CC(C)Cc1nc2c(=O)c3cc(C(=O)O)[nH]c3c3c(C(=O)O)cc(C(=O)O)n1c23 [Example 3, leucine residue IPQ] | 69.9 | reduced | 2.52 | 62 | grown to be larger | 26.78 | 21.56 | 20.53 | 1.1 times | 22.96 ± 3.35
5 | N=C(N)NCCCc1nc2c(=O)c3cc(C(=O)O)[nH]c3c3c(C(=O)[O-])cc(C(=O)[O-])n1c23.[Na+].[Na+] [Example 2, Arginine Residue IPQ Disodium] | 79.7 | reduced | 2.64 | 45 | grown to be larger | 25.33 | 30.35 | 30.47 | 1.4 times | 28.72 ± 2.93

From US20240207250A1, “AGENT FOR PROMOTING LIPID REDUCTION” (MITSUBISHI GAS CHEMICAL COMPANY, INC., priority 2021, published 2024)
